Measurements reported in ChEMBL document CHEMBL5674860, “Optimized Dual-Glo Assay to identify co-culture-induced drug vulnerabilities in 3D CRC models” (2024).

Key:
Assay type in all cases: functional, Homo sapiens
Design in all cases: dose or concentration left out as unconfirmed
Colon cancer organoid [1] = experiment: Optimized Dual-Glo assay to identify co-culture induced drug vulnerabilities using donated chemical probes and chemogenomics kinase set in O14 CRC organoid and F14 CAF mono and co-culture. […] Cell viability is reported both mono and co-culture models.
Colon cancer organoid [2] = experiment: Optimized Dual-Glo assay to identify co-culture induced drug vulnerabilities using donated chemical probes and chemogenomics kinase set in O06 CRC organoid and F06 CAF mono and co-culture. […] Cell viability is reported both mono and co-culture models.
Colon cancer organoid [3] = experiment: Optimized Dual-Glo assay to identify co-culture induced drug vulnerabilities using donated chemical probes and chemogenomics kinase set in O20 CRC organoid and F20 CAF mono and co-culture. […] Cell viability is reported both mono and co-culture models.
[4] = Culture type Co-Culture, Transduced with Lucferase2-P2A-EGFP lentivirus
[5] = Culture type Co-Culture, Transduced with Renilla-dsRed lentivirus
[6] = Culture type Mono-Culture, Transduced with Lucferase2-P2A-EGFP lentivirus
[7] = Culture type Mono-Culture, Transduced with Renilla-dsRed lentivirus

SMILES | Cell Viability (Colon cancer organoid [1]; [4]) | Cell Viability (Colon cancer organoid [1]; [5]) | Cell Viability (Colon cancer organoid [1]; [6]) | Cell Viability (Colon cancer organoid [1]; [7]) | Cell Viability (Colon cancer organoid [2]; [4]) | Cell Viability (Colon cancer organoid [2]; [5]) | Cell Viability (Colon cancer organoid [2]; [6]) | Cell Viability (Colon cancer organoid [2]; [7]) | Cell Viability (Colon cancer organoid [3]; [4]) | Cell Viability (Colon cancer organoid [3]; [5]) | Cell Viability (Colon cancer organoid [3]; [6]) | Cell Viability (Colon cancer organoid [3]; [7])
CN(C)c1ncnc(-c2ccc3nc(Nc4cc(CN5CCN(C(=O)CC(F)(F)F)CC5)ccn4)[nH]c3c2)c1Cl [BAY-440] | 103.771% | 112.238% | 114.79% | 113.849% | 92.9994% | 174.385% | 85.2405% | 88.7418% | 123.006% | 109.622% | 117.784% | 126.413%
Cc1noc([C@H]2C[C@@H](c3ccc(C(F)(F)F)cc3)CN(C(=O)N3CCS(=O)(=O)C3)C2)n1 [BAY-448] | 96.3881% | 112.512% | 127.621% | 97.5385% | 105.176% | 127.928% | 104.997% | 116.857% | 115.252% | 84.5218% | 119.935% | 108.615%
CC1=C(C#N)C(c2ccc3[nH]nc(C)c3c2)C(C#N)=C(C)N1 [BAY-474] | 198.7% | 101.908% | 71.8172% | 85.997% | 148.587% | 192.268% | 98.9453% | 96.2381% | 81.7867% | 102.241% | 98.8764% | 79.7467%
CC(=O)C1=C(C)N(c2cccc(C(F)(F)F)c2)C(=O)N[C@H]1c1ccc(C#N)nc1 [BAY-677] | 86.1981% | 131.912% | 107.006% | 91.8517% | 113.366% | 134.225% | 107.227% | 105.031% | 134.265% | 107.791% | 113.459% | 115.06%
CC(=O)C1=C(C)N(c2cccc(C(F)(F)F)c2)C(=O)N[C@@H]1c1ccc(C#N)nc1 [BAY-678] | 126.5% | 123.101% | 84.3173% | 104.156% | 128.432% | 162.784% | 110.704% | 89.9312% | 140.099% | 133.591% | 110.356% | 85.3396%
Cc1nc(C2CCN(C(=O)c3ccc(OC(F)(F)F)cc3N)CC2)c2ncc(N3CCN(C)CC3)cc2n1 [BAY-693] | 86.7565% | 92.2226% | 129.525% | 92.5719% | 114.208% | 166.908% | 75.386% | 110.093% | 93.857% | 129.276% | 111.777% | 88.9169%
O=C(O)[C@@H]1[C@@H](Cn2nnc3ccccc3c2=O)CC[C@H]1C(=O)c1ccc(OCCC2CCOCC2)cc1 [BAY-694] | 106.85% | 112.908% | 118.458% | 100.512% | 117.739% | 144.793% | 97.4704% | 83.1858% | 92.0939% | 91.7477% | 167.035% | 108.76%
O=C(NCc1ncc(C(F)(F)F)cc1Cl)c1ccc2c(c1)C1(CCS(=O)(=O)CC1)[C@@H](C1CC1)N2S(=O)(=O)c1ccc(F)cc1 [BAY-786] | 75.9207% | 99.8085% | 94.4221% | 104.267% | 112.409% | 138.316% | 97.377% | 88.5192% | 102.274% | 106.984% | 104.026% | 100.592%
Cc1c(NC(=O)c2cc(C(N)=O)nc3cc(F)ccc23)c(C(F)(F)F)nn1Cc1ccc(C#N)cc1 [BAY-876] | 22.1239% | 120.557% | 31.4127% | 63.4994% | 9.2808% | 424.118% | 4.84% | 74.218% | 13.842% | 190.785% | 15.2674% | 77.5911%
CN1CCN(c2cnc3c(C4CCN(C(=O)c5ccc(OC(F)(F)F)cc5N)CC4)ncnc3c2)CC1 [BAY-885] | 92.1967% | 106.052% | 52.9657% | 104.304% | 128.922% | 132.533% | 82.0167% | 90.7895% | 78.3205% | 141.163% | 69.7079% | 80.8249%
O=C(Nc1cnc(Oc2ccc(F)cc2)nc1)N1CCc2ncccc2[C@@H]1c1ccc(F)cc1 [BAY-899] | 76.8335% | 114.239% | 91.8718% | 105.629% | 92.2798% | 100.101% | 137.923% | 100.535% | 151.718% | 104.61% | 76.6403% | 85.9791%
CC1=C(C#N)C(c2ccc3c(c2)c(NC(=O)c2ccccc2C)nn3C)C(C#N)=C(C)N1 [BAY-974] | 102.224% | 90.7163% | 99.5288% | 100.218% | 97.6295% | 94.9804% | 90.396% | 95.4639% | 105.235% | 128.576% | 108.1% | 107.642%
C[C@H](c1ccnc(Nc2nc3ccc(-c4cc(N(C)C)ncn4)cc3[nH]2)c1)N1CCN(C(=O)CC(F)(F)F)CC1 [BAY-985] | 122.433% | 113.895% | 111.789% | 77.4572% | 134.436% | 180.071% | 90.5996% | 96.3949% | 129.711% | 125.86% | 106.931% | 106.043%
NS(=O)(=O)c1cc(NC(=O)Cc2ccccc2)ccc1Oc1cccc(Cl)c1 [BAY-1797] | 108.747% | 112.127% | 131.361% | 106.475% | 120.23% | 167.635% | 96.4062% | 112.706% | 89.0927% | 86.996% | 102.238% | 103.793%
